Results published in article PMC9436958, “The synthesis of novel thioderivative chalcones and their influence on NF-κB, STAT3 and NRF2 signaling pathways in colorectal cancer cells” (Scientific Reports, 2022).
Where two headings read alike, the source gives them in different places.

Assays:
NF-κB p50 = experiment: Western blot, NF-κB p50 protein level; type: cell-based; conditions: BAY 11-7082 5 µM; both tested cell lines
Procedure: (§1) Cytosolic and nuclear extracts were prepared using a Nuclear/Cytosol Fractionation Kit (BioVision Research, USA). Cytosolic extracts (for NF-κBp65, NF-κBp50, COX-2, iNOS, STAT3, c-Myc, Bcl-xl, Nrf2, SOD, GSTP, EGFR, Akt, p-Akt, Keap1, IKKα/β and β-actin) or nuclear extracts (for NF-κBp65, NF-κBp50, STAT3, p-STAT3, Nrf2, p-Nrf2 and lamin) were separated on 7.5%, 10% or 12% SDS–PAGE slab gels. Then, the proteins were transferred to a nitrocellulose Immobilon-P membrane. After blocking for 2 h with 10% skimmed milk, proteins were incubated with primary antibodies against NF-κBp65, NF-κBp50, COX-2, iNOS, STAT3, p-STAT3, c-Myc, Bcl-xl, Nrf2, p-Nrf2, SOD, GSTP, EGFR, Akt, p-Akt, Keap1, IKKα/β, β-actin, and lamin. Alkaline phosphatase (AP)-labeled anti-rabbit IgG, anti-goat IgG, and anti-mouse IgG secondary antibodies (Bio-Rad Laboratories, USA), as well as horseradish peroxidase (HRP)-conjugated anti-mouse IgG (Boster Bio, USA) secondary antibodies were used in the staining reaction. Bands were visualized by the AP Conjugate Substrate Kit NBT/BCIP or the chemiluminescent HRP substrate of the Clarity ECL Kit (Bio–Rad Laboratories, USA). The amount of immunoreactive product in each lane was determined using a ChemiDoc Imaging System (Bio–Rad Laboratories, USA). Values were calculated as relative absorbance units (RQ) per mg of protein and expressed as a percentage of the control.

NF-κB p65 = experiment: Western blot, NF-κB p65 protein level; type: cell-based; conditions: BAY 11-7082 5 µM; both tested cell lines
Procedure: as §1

COX-2 [1] = experiment: COX-2 expression (qRT-PCR mRNA, Western blot protein); type: cell-based; conditions: BAY 11-7082 5 µM; both tested cell lines
Procedure: as §1
Total RNA from cells was isolated with the GeneMatrix Universal DNA/RNA/Protein Purification Kit (EurX, Poland). For the qRT-PCR analyses, the Maxima SYBR Green I/ROX qPCR Master Mix (2×) (Thermo Fisher Scientific, USA) and the thermal cycler LightCycler (Roche, Germany) were used. The protocol started with 5 min of enzyme activation at 95 °C, followed by 40–50 cycles at 95 °C for 15 s, 56 °C for 20 s, 72 °C for 40 s, and final elongation at 72 °C for 5 min. Melting curve analysis was used for amplicon verification. The expression levels of TATA-box-binding protein (TBP) and porphobilinogen deaminase (PBGD) were used to normalize the data. The Pfaffl comparative method was used to calculate fold change. Primers were designed using Beacon Designer software (the sequences of primers used to analyze genes are listed in Table 2 of the supplementary materials).

DLD-1 cells [2] = experiment: Cell cycle distribution, PI staining, flow cytometry, DLD-1; type: cell-based; conditions: 48 h, BAY 11-7082 5 µM, 5 in higher (doubled) concentration
Procedure: (§2) The analysis of the cell cycle distribution was performed by propidium iodide (PI) staining. The addition of RNase A improved the specificity of PI binding to DNA. The Muse Cell Cycle Kit (Luminex, USA) and flow cytometric detection were performed with the Muse Cell Analyzer (Merck, Germany), according to the manufacturer’s protocol. Briefly, cells were seeded (2 × 10^5 cells per well) in 6-well plates and on the following day the analyzed compounds were added. Topotecan (Sigma-Aldrich, USA) was used as a positive control of cell cycle arrest. After 48 h cells were collected by trypsinization, fixed in cold 70% ethanol and stored at –20 °C. Then, fixed cells were collected and stained with PI, subjected to 30 min incubation at room temperature in the dark and analyzed by flow cytometry. Three independent experiments were performed. Data were analyzed by Muse 1.5 Analysis Software (Merck, Germany).

HCT116 cells [3] = experiment: Cell cycle distribution, PI staining, flow cytometry, HCT116; type: cell-based; conditions: 48 h, BAY 11-7082 5 µM, 4 and 5 in higher (doubled) concentrations
Procedure: as §2

DLD-1 cells [4] = experiment: Apoptosis, Annexin V / 7-AAD flow cytometry, DLD-1; type: cell-based; conditions: 48 h, mainly early and total apoptotic populations enriched
Procedure: (§3) Apoptosis was assessed by the detection of phosphatidylserine externalization based on Annexin V staining combined with fluorescent DNA intercalator 7-Aminoactinomycin D (7-AAD) what allowed for the discrimination between early and late apoptotic cells. The analysis was performed by flow cytometry using the Muse Annexin V & Dead Cell Kit (Luminex, USA) and the Muse Cell Analyzer (Merck, Germany), according to the manufacturer’s protocol. Cells were seeded (2 × 10^5 cells per well) in six-well plates and on the following day the analyzed compounds were added. Topotecan (Sigma-Aldrich, USA) was used as a positive control of apoptosis induction. After 48 h cells were collected by trypsinization, stained and after 20 min incubation at room temperature in the dark analyzed by flow cytometry. Three independent experiments were performed. Data were analyzed by Muse 1.5 Analysis Software (Merck, Germany).

HCT116 cells [5] = experiment: Apoptosis, Annexin V / 7-AAD flow cytometry, HCT116; type: cell-based; conditions: 48 h, increase of early, late and total apoptosis
Procedure: as §3

DLD-1 cells [6] = experiment: Wound healing assay (cell migration); type: cell-based; conditions: 24 h, 4 at standard concentration (1 μM), BAY 11-7082 5 µM
Procedure: Cell migration was assessed by the wound healing assay. DLD-1 cells were seeded into 24-well plates (5 × 10^5 cells per well) and were grown overnight to reach confluency. A scratch was performed using a 10 μl tip, wells were rinsed twice with PBS buffer to remove detached cells, and fresh medium with reduced FBS concentration (0.5%) containing the tested compounds was added. Subsequently, representative microscopic photographs of scratch areas were taken by JuLI FL microscope (NanoEntek, South Korea) direct after the addition of compounds and after 24 h. Area covered by cells (%) was assessed using JuLI FL software and the difference in the coverage of the growth area by DLD-1 cells between 0 and 24 h time points was calculated for each well. The experiment was repeated three times. The relative effect of the tested compounds on cell migration was calculated by comparing the difference in cell coverage area between compound-treated cells and DMSO-vehicle control (tested compound [area 24 h − area 0 h] / DMSO-vehicle control [area 24 h − area 0 h]).

Nrf2 signaling pathway = system: Nrf2 signaling pathway; set-up: method as in PMID 23085367, PMID 34120541; conditions: cited from earlier work
NF-κB = system: NF-κB; set-up: method as in PMID 34120541; conditions: PANC-1 pancreatic cancer cells; cited from earlier work
COX-2 [7] = system: COX-2; set-up: method as in PMID 34120541; conditions: PANC-1 pancreatic cancer cells; cited from earlier work

Row | SMILES | level of NF-κBp50, compared with the studied chalcones (NF-κB p50) | level of NF-κBp65, compared with the studied chalcones (NF-κB p65) | level of COX-2, compared with the studied chalcones (COX-2 [1]) | cell cycle distribution (in words) (DLD-1 cells [2]) | cell cycle distribution (in words) (HCT116 cells [3]) | induction of apoptosis (DLD-1 cells [4]) | induction of apoptosis (HCT116 cells [5]) | reduction of cell migration rate (wound healing) vs DMSO-treated cells (DLD-1 cells [6]) | activation of the Nrf2 signaling pathway (Nrf2 signaling pathway; HepG2 hepatoma cells) | activation of the Nrf2 signaling pathway (Nrf2 signaling pathway; PANC-1 pancreatic cancer cells) | activation of NF-κB (NF-κB) | binding of both NF-κB subunits to DNA (NF-κB) | expression of COX-2 (COX-2 [7])
1 | Cc1ccc(S(=O)(=O)/C=C/C#N)cc1 [BAY 11-7082, reference compound] | more potent inhibition | more potent inhibition | more potent inhibition | decrease of G1/G0 cell cycle phase | decreased G1/G0 phases; increased S and G2/M phases | able to induce apoptosis | able to induce apoptosis | at the same level as DMSO-treated cells | – | – | – | – | –
2 | COc1cc(O)c(CC=C(C)C)c(O)c1C(=O)/C=C/c1ccc(O)cc1 [xanthohumol] | – | – | – | – | – | – | – | – | significantly increased activation | significantly increased activation | decreased the activation of NF-κB | decreased | decreased
